Here are results for four molecules from the supplement of paper PMC11414989.

What all share (settings): 0.25 µM, exposure window: 6 hpf to 120 hpf, static, assay age: 120 hpf (5 dpf)
The test system of assay [1] is Danio rerio larvae (Tropical 5D). In words: mean distance moved of exposed larvae, dark phase (µm per frame (1/25 s)); higher = more movement. The method, boiled down: (§1)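 Tropical 5D wild-type zebrafish embryos, one per well of 96-well plates with at least 7 per concentration, were statically exposed to nominal chemical concentrations (e.g. 0.01 and 74.8 uM) from 6 to 120 hpf. Larvae with any morphological abnormality were excluded. At 120 hpf, movement in a Zebrabox (6 min dark, then three 3 min light/3 min dark cycles) was tracked with Ethovision XT v.11. Each value is the mean movement per phase of the second cycle, with same-plate control means given.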

For assay [2] the test system is unchanged. Put plainly: mean distance moved of exposed larvae, light phase (µm per frame (1/25 s)); higher = more movement. The method, boiled down:
as §1

For assay [3] the test system is unchanged. Put plainly: mean angular velocity of exposed larvae, dark phase (angular velocity (unit not stated)); higher = more movement. The procedure, abridged:
as §1

The test system is the same in assay [4]. In words: mean angular velocity of exposed larvae, light phase (angular velocity (unit not stated)); higher = more movement. The method, boiled down:
as §1

As to `O=S(=O)(O)C(F)(F)C(F)(F)C(F)(F)C(F)(F)C(F)(F)F` [Sodium Perfluoro-1-pentanesulfonate], the “mean distance moved of exposed larvae” value came to 34.7 in assay [1] and 5.23 in assay [2]. The “mean angular velocity of exposed larvae” value in assay [3] stood at 1.28; in assay [4] it was 0.235.
With `O=P(O)(C(F)(F)C(F)(F)C(F)(F)C(F)(F)C(F)(F)C(F)(F)F)C(F)(F)C(F)(F)C(F)(F)C(F)(F)C(F)(F)C(F)(F)F` [Sodium bis(perfluorohexyl)phosphinate], the entries for the “mean distance moved of exposed larvae” value in assay [1] and in assay [2] were 14.2 and 1.35, respectively. The “mean angular velocity of exposed larvae” value in assay [3] is 0.687; in assay [4], 0.163.
On the same counts, the results for `O=P(O)(C(F)(F)C(F)(F)C(F)(F)C(F)(F)C(F)(F)C(F)(F)C(F)(F)C(F)(F)F)C(F)(F)C(F)(F)C(F)(F)C(F)(F)C(F)(F)C(F)(F)C(F)(F)C(F)(F)F` [Sodium bis(perfluorooctyl)phosphinate] are 15.1, 2.89, 0.704 and 0.119.
On the same counts, the results for `O=S(=O)(O)C(F)(F)C(F)(F)C(F)(F)C(F)(F)C(F)(F)C(F)(F)C(F)(F)C(F)(F)C(F)(F)C(F)(F)F` [Sodium perfluoro-1-decanesulfonate] are 24.8, 6.8, 0.897 and 0.372.
